Test results published in US20250235415A1, “MODULATION OF HUMAN BREAST MILK COMPOSITION” (LUNDQUIST INSTITUTE FOR BIOMEDICAL INNOVATION AT …, priority 2022, published 2025).
Entries after “also recorded” stand apart in the source; their conditions may differ. Counter-ions that a name gives are not always drawn. Like-named read-outs stand apart in the source and are kept apart here.

Key:
[1] = test system: in vitro cultures; assay: Cell viability of in vitro cultures with orlistat; type: cell-based; conditions: orlistat 250 μM, orlistat-to-palmitate ratio 1:1
[2] = test system: mammary epithelial cells (MECs); assay: Cell permeability: FITC and FITC-dextran flux from basolateral to apical compartment; type: cell-based, mouse
Method: Cell Permeability: To assess whether mammary epithelial permeability was altered by the treatments, we measured the unidirectional flux of fluorescein isothiocyanate (FITC, molecular weight 376) and FITC-labeled dextran 3000 (FITC-dex) from the basolateral to the apical compartments. MECs were prepared as stated above and treated with palmitate and orlistat as described above. After 2 days, FITC and FITC-dex (0.5 mg/mL) were added to the basolateral chamber, and the cells were incubated for 1 h. Thereafter, the basolateral and apical media were aspirated separately, and fluorescence intensity was measured at 490/520 nm excitation/emission maxima. The permeability of the cells is expressed as percent of flux into the apical chamber/total FITC administered into the basolateral chamber.

[3] = test system: mammary epithelial cells (MECs); assay: 3-D mouse mammary epithelial cell (MEC) primary culture: milk and lipid synthesis and secretion; type: cell-based; conditions: for palmitate-induced MEC "milk" triglyceride concentration: orlistat 100 μmol/L together with palmitate 100 μmol/L; for palmitate-induced MEC "milk" triglyceride concentration / MEC "milk" β-casein protein expression / MEC "milk" triglyceride secretion / concentration: 48 h; for MEC "milk" β-casein protein expression: palmitate 50, 100 μmol/L; for MEC "milk" β-casein protein expression / MEC "milk" triglyceride secretion / concentration: (sodium salt); for MEC "milk" triglyceride secretion / concentration: palmitate 50, 100 μmol/L in basolateral chamber, vs untreated MECs
Method: The growth medium consisted of RPMI-1640 supplemented with 10% FBS, 10 μg/mL of insulin, 10 ng/ml of EGF, 100 U/mL of penicillin, and 100 μg/mL of streptomycin. The lactogenic medium consisted of growth medium plus 0.5 U/mL of prolactin and 1 μM dexamethasone. The palmitate-albumin conjugate stock solution contained a palmitate solution (2 mM/L in 50% ethanol) and FA-free BSA (2%) and was diluted in lactation medium to provide 50 and 100 μmol/L palmitate concentrations. Orlistat was dissolved in ethanol.
3-D Cell Culture Model: This example recreated the milk production pathway in mammary epithelial cell (MEC) primary cultures. The method uses cell culture inserts to maintain the cell polarity of MECs, which secrete milk components into the apical (upper) compartment from nutrient sources in the basolateral (lower) compartment (FIG. 1). Briefly, the mice (N=6) were euthanized, and the 4th abdominal mammary glands from both sides were collected in PBS buffer for the isolation of MECs. The mammary glands were minced and incubated in RPMI-1640 medium containing collagenase III (1.5 mg/mL) for 2 h at 37° C. with gentle shaking, followed by centrifugation (600×g for 1 min). The pellet was re-suspended in RPMI-1640 with 0.2% trypsin for 5 min at room temperature. The fragments of the mammary epithelium were dissociated by gentle pipetting with a Pasteur pipette and centrifuged (600×g for 1 min), and the pellet was re-suspended in 60% FBS (fetal bovine serum) followed by centrifugation (10×g for 1 min). The trypsin treatment and centrifugation with FBS were repeated for the isolation of mammary epithelial fragments without contaminating cells, such as fibroblasts, adipocytes, and myoepithelial cells. The epithelial fragments (0.1 mg) were subsequently seeded in 24-well cell culture plates with inserts to separate the basolateral chamber containing the lactogenic medium (nutrients) and the apical chamber containing the secreted MEC “milk”. The cells were cultured for 6 days at 37° C. in growth medium placed in the basolateral chamber. To induce lactogenesis, MECs were cultured in lactogenic medium placed in the basolateral and apical chambers for 2 days at 37° C. To induce a high milk production ability, MECs were cultured at 39° C. with the lactogenic medium in the basolateral chamber and with RMPI-1640 in the apical chamber (FIG. 1).
Treatments: Palmitate (50, 100 μmol/L) or the lipase inhibitor orlistat (100 μmol/L) together with palmitate (100 μmol/L) were added to the lactogenic medium within the basolateral chamber, and RPMI-1640 was maintained in the apical chamber. After 48 h, MECs and apical medium were collected separately for analysis, as described below.
Sample Analysis: Henceforth, we refer to cellular MECs as “MECs” and to apical medium as MEC “milk”. MECs were fixed for immunostaining or stored at −80° C. for protein and mRNA expression studies. MEC “milk” was frozen at −80° C. and analyzed for triglyceride concentration and protein and mRNA expression.
Western Blot: The cells were harvested and dissolved in RIPA solution with a protease inhibitor cocktail and sonicated, and the cell lysates were processed for the analysis of protein concentration by the […] Protein Assay Kit. For the detection of pSTAT5, the protein phosphatase inhibitor NaF (50 mM) was added to all buffers. MEC protein expression of β-casein (25 kDa), FAS (270 KDa), SREBP1 (68 KDa), and pSTAT5 (92 KDa) was analyzed.
MEC “milk” was similarly analyzed for protein expression of β-casein.
RT-PCR: The mRNA abundance of the target genes (lipoprotein lipase, LPL; FAS) and the reference gene (18S) in MEC and MEC “milk” was determined by RT-PCR. Briefly, RNA was extracted following the manufacturer's instructions, using the RNeasy Mini Kit (Qiagen, Valencia, CA, USA). Briefly, a guanidine-thiocyanate-containing lysis buffer and ethanol were added to the samples to promote the selective binding of RNA to the RNeasy membrane. […]

[4] = humans; cited from earlier work
[5] = test system: infant gut microbiota; assay: TIM-2 in vitro proximal colon model inoculated with infant feces; set-up: species or system human; conditions: high dose LNnT (1000 mg/L) with infant formula
Method: Preliminary Data on Effect of HMOs on infant microbiome: These in vitro studies were performed with TIM-2 107-121 inoculated with feces from 3-month old breast-fed infants (pooled microbiota of 5 infants).
Effect of HMO lacto-N-neotetraose (LNnT) on microbiome metabolic activity: We studied the effect of the most abundant HMOs LNnT (200 and 1000 mg/L) on the metabolic activity of the gut microbiota in TIM-2 when exposed to infant formula.
TIM-2 in vitro Colon Model: TIM-2 simulates the colon and consists of four interconnected compartments containing flexible membranes in which peristaltic movements are mimicked. Conditions of healthy human infants are simulated including: body temperature, lumen pH, composition and rate of secretion fluids, delivery of a predigested substrate from the ‘ileum’, mixing and transport of intestinal contents by peristalsis, absorption of water and microbial metabolites through a dialysis system, and presence of a complex, high density, metabolically active and anaerobic microbiota of healthy human infants. The dialysis system prevents accumulation of microbial metabolites, which would otherwise inhibit or kill gut microbiota. The model will be inoculated with a pooled microbiota of healthy human infants (˜2 months) using feces collected (diaper samples) from 10 volunteers and pooled in an anaerobic cabinet to allow for a standardized microbiota. […]

**Q.** Which results are given for CCCCCCCCCCC[C@@H](C[C@@H]1OC(=O)[C@H]1CCCCCC)OC(=O)[C@H](CC(C)C)NC=O [orlistat]?
**A.** cell viability [1]: demonstrated cell viability; FITC fluorescence measured in the apical chamber, treated vs non-treated ([2]; after 48 h treatment, 1 h incubation with FITC): comparable; palmitate-induced MEC "milk" triglyceride concentration [3]: reversed; also recorded: suppressed; palmitate-induced MEC "milk" triglyceride concentration ([3]; listed as Orlistat): normalized; systemic absorption [4]: minimal

**Q.** With CC(=O)N[C@H]1[C@H](O[C@H]2[C@@H](O)[C@@H](CO)O[C@@H](O[C@H]3[C@H](O)[C@@H](O)C(O)O[C@@H]3CO)[C@@H]2O)O[C@H](CO)[C@@H](O[C@@H]2O[C@H](CO)[C@H](O)[C@H](O)[C@H]2O)[C@@H]1O (mixture of isomers) [LNnT, lacto-N-neotetraose] as the compound, how does the “L-lactate production by gut microbiota” value [5] read?
**A.** The value was “increased”.

**Q.** Which “FITC fluorescence measured in the apical chamber, treated vs non-treated” value [2] does the source give for CCCCCCCCCCCCCCCC(=O)O [palmitate, palmitate (sodium salt)] here?
**A.** The value was “comparable”.

**Q.** And the “MEC "milk" β-casein protein expression” value ([3]; apical medium)?
**A.** The value was “dose-dependent increase”.

**Q.** And the “MEC "milk" β-casein protein expression” value ([3]; apical medium, listed as palmitic)?
**A.** Its value is “increases”.

**Q.** And the “MEC "milk" mRNA expression of Fas” value ([3]; apical medium, palmitate 48 h)?
**A.** Its value is “increased”.

**Q.** And the “MEC "milk" mRNA expression of Lpl” value ([3]; apical medium, palmitate 48 h)?
**A.** Its value is “increased”.

**Q.** And the “MEC mRNA expression of Fas” value ([3]; cellular MECs, palmitate 48 h)?
**A.** Its value is “increased”.

**Q.** What about the “MEC mRNA expression of Lpl” value ([3]; cellular MECs, palmitate 48 h) of the same compound?
**A.** Its value is “increased”.

**Q.** What about the “MEC protein expression of FAS” value ([3]; cellular MECs, palmitate 48 h) of the same compound?
**A.** Its value is “increased”.

**Q.** What about the “MEC protein expression of SREBP1” value ([3]; cellular MECs, palmitate 48 h) of the same compound?
**A.** The value was “increased”.

**Q.** What about the “MEC protein expression of pSTAT5” value ([3]; cellular MECs, palmitate 48 h) of the same compound?
**A.** The value was “increased”.

**Q.** And the “MEC protein expression of β-casein” value ([3]; cellular MECs, palmitate 48 h)?
**A.** The value was “increased”.

**Q.** And the “MEC "milk" triglyceride secretion / concentration” value [3]?
**A.** The value was “dose-dependent increase”.

**Q.** What about the “MEC "milk" triglyceride secretion / concentration” value ([3]; listed as Na-palmitate) of the same compound?
**A.** Its value is “doubled”.

**Q.** And the “MEC "milk" triglyceride secretion / concentration” value ([3]; listed as palmitic)?
**A.** The value was “increases”.
